Source: publication PMC9530166, “Allosteric regulation of glycogen breakdown by the second messenger cyclic di-GMP” (Nature Communications, 2022)
“Also recorded” adds a separate entry of the source.

Tests used:
His6-GlgXDLVR(212-215) = assay: nanoDSF thermal shift assay, RLVD212-215 swap mutant; format: binding, Streptomyces venezuelae; conditions: His6-GlgXDLVR(212-215) mutant
Description: Arginine and aspartic acid arranged in an RxxD motif are often found as c-di-GMP binding signatures in effector proteins[28],[34]. […] To determine if either of these motifs are involved in c-di-GMP binding, we swapped the arginine and aspartic acid residues in the two motifs and purified His6-GlgXDETR(49-52) and His6-GlgXDLVR(212-215).
For label-free thermal shift assay experiments, 10 μM purified protein in 25 mM Tris pH 8, 150 mM NaCl, 2.5% (v/v) glycerol, and 5 mM MgCl2 was incubated without or with (1 mM) of nonlabeled c-di-GMP or c-di-AMP, respectively, at rt for 10 min. Reactions were subsequently analyzed in a Tycho NT.6 (NanoTemper Technologies) device with a 30 K/min thermal ramp and the internal fluorescence at 330 and 350 nm was recorded. Data analysis and calculation of derivatives was done using the internal evaluation features of the Tycho instrument.
217 Supplementary Fig. 5: NanoDSF assays with mutagenized His6-GlgX variants. (a) Swap of the
219 This was confirmed by DRaCALA, right. For DRaCALA assays, 15 µg of purified E. coli His6-GlgX
220 or His6-Vnz25270, respectively, were mixed with 0.5 µl of [32P]-c-di-GMP (Hartmann Analytic
221 GmbH, Braunschweig) in binding buffer (25 mM Tris pH 8.0, 150 mM NaCl, 2.5% (v/v) glycerol
222 and 5 mM MgCl2). […]
223 air dried for 10 min and analyzed by phosphorimaging. […]

BldD = target: BldD; parameters: method as in PMID 25171413, PMID 31810759; conditions: cited from earlier work
GlgX = GlgX (Streptomyces venezuelae, UniProt F2RAW5); assay: Microscale thermophoresis (MST); format: binding; conditions: 40 nM RED-NHS labeled GlgX, unlabeled c-di-GMP, n=2
Description: For MST experiments, purified GlgX was labeled using Monolith NT protein labeling kit RED-NHS (amine reactive) dye (NanoTemper Technologies GmbH) according to manufacturer´s guidelines. The protein concentration was adjusted to 20 μM in labeling buffer and the labeling reaction was carried out at rt for 30 min in the dark. Excess fluorescence dye was subsequently removed from the labeled protein by gel filtration using a dye removal column provided by the supplier and equilibrated with MST buffer (25 mM Tris pH 8, 150 mM NaCl, 2.5% (v/v) glycerol, 5 mM MgCl2, 0.05% (v/v) Tween). A UV/VIS spectrophotometry at 650 and 280 nm was used to determine the degree of labeling. Next, labeled GlgX was adjusted to 80 nM in MST buffer and a series of 16 1:2 dilutions of c-di-GMP (BioLog) were prepared using the same buffer. An equal volume of protein and c-di-GMP dilutions were mixed resulting in 16 samples with 40 nM protein each and c-di-GMP concentrations ranging from 2 mM to […]. Samples were then loaded into Monolith NT.115 Premium Capillaries (NanoTemper Technologies) and MST was measured using a Monolith NT.115 instrument (NanoTemper Technologies). Instrument parameters were set to 20% LED power and 40% MST power and the data were analyzed using MO.Affinity Analysis software version 2.3; NanoTemper Technologies. […]

His6-GlgXE378A = assay: BCA reducing-end enzyme assay, GlgXE378A; format: biochemical, Streptomyces venezuelae; conditions: 50 µM c-di-GMP, 0.05% glycogen from rabbit, 1 µM enzyme
Description: Fig. 2 c-di-GMP stimulates glycogen breakdown activity of GlgX in vitro. a Bicinchoninic acid (BCA) in vitro enzyme assay. The purple copper bicinchoninate complex indicating GlgX-mediated generation of reducing ends in glycogen was quantified by photometric measurements at 562 nm. A562 values were converted into reducing ends [µM glucose equivalents] based on D-glucose as a standard. Reactions contained 0.05% (w/v) glycogen from rabbit, 1 µM GlgX and increasing concentrations of c-di-GMP (0–100 µM). Source data are provided as a Source data file. b BCA assay containing 0.05% of either glycogen from rabbit, pullulan, amylopectin from maize or amylose from potato as substrates. Where appropriate, 1 µM GlgX or 50 µM c-di-GMP were added to the reaction samples. Source data are provided as a Source data file. c BCA assay as in a with or without c-di-GMP (50 µM), 0.05% glycogen from rabbit (S) and 1 µM Vnz25270, GlgX, the active site mutants GlgXD342A, GlgXE378A, GlgXD342A+E378A, or the c-di-GMP-binding mutant variant GlgXDETR49-52 as indicated. […]
Hydrolysis of carbohydrates was assessed in vitro by measuring the accumulation of reducing sugar ends using the BCA assay[42] and D-glucose as a standard for calibration (Supplementary Fig. 11). […] 125 μl sample aliquots were transferred in duplicates to a 96 well plate and the absorbance at 562 nm was measured using a plate reader.

GlgX, sequence (F2RAW5 entry or part of it): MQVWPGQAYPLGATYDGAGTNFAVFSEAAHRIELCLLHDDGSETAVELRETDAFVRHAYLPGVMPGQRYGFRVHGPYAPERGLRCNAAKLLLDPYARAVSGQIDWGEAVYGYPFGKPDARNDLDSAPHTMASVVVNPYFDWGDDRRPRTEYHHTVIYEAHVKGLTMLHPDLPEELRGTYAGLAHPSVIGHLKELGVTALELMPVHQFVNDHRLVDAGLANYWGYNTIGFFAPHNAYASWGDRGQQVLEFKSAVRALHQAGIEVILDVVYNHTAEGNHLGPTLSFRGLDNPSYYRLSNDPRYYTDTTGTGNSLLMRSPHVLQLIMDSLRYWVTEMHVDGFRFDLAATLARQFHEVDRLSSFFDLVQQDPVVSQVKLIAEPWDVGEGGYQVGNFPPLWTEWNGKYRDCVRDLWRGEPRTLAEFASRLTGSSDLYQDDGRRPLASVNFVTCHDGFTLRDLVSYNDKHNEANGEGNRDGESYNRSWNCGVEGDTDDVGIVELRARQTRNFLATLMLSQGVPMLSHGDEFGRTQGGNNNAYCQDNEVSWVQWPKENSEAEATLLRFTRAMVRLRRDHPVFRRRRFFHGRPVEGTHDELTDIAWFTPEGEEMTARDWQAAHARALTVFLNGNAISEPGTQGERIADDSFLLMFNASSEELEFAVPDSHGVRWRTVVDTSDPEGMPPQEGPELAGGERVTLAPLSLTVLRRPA

Nc1nc2c(ncn2[C@@H]2O[C@@H]3CO[P@](=O)(O)O[C@H]4[C@@H](O)[C@H](n5cnc6c(=O)[nH]c(N)nc65)O[C@@H]4CO[P@](=O)(O)O[C@H]3[C@H]2O)c(=O)[nH]1 [c-di-GMP, bis-(3′−5′)-cyclic diguanosine monophosphate]
shift in melting/unfolding temperature by c-di-GMP (His6-GlgXDLVR(212-215)): still allows ligand binding; also recorded: still caused a shift
Kd (BldD): 2.5 ± 0.6 µM
Kd (GlgX): 8.3 µM
stimulation of enzyme activity by c-di-GMP (His6-GlgXE378A): could not be stimulated
